According to patent publication US20100179091A1, “Treatment of Conditions Related to Shock” (THE REGENTS OF THE UNIVERSITY OF CALIFORNIA, priority 2007, published 2010):

Test system: shock induced in lab rodents
Experiment: Survival of lab rodents after induced shock, treated with digestive enzyme inhibitor
Format: in vivo, rodent
Text: The present invention is based on the latest research using rodent models of human hemorrhagic shock. Here it has been discovered that the sudden lowering of blood pressure that occurs in people suffering from […] can provoke the body's digestive enzymes to break down the body's own intestinal and other tissues as if it were food. Such enzymes' abnormal actions may be defined as “auto-digestion.” Auto-digestion is dangerous because not only does it injure healthy tissue but also contributes to multi-organ failure, which can be fatal.
The healthy cells of the animals' intestinal tissue react to auto-digestion by releasing a slew of substances that can be toxic to the heart and other body organs. These substances, termed cytotoxic mediators, can reach these body organs via the blood stream. In recent studies, shock was induced in 19 lab rodents, all of which were then treated with therapies that mirror the emergency room care given to many human patients who suffer shock, which typically occurs when blood flow to the heart, lungs and other body organs is slowed as a result of trauma, dehydration, heart attack, stroke or radiation.
A total of 10 of the 19 lab rodents in shock were also treated with the experimental digestive enzyme inhibitor called ANGD. […] However, only one of the nine “untreated” animals in shock survived. […]

**Q.** Which results are given for `CS(=O)(=O)O.CS(=O)(=O)O.N=C(N)Nc1ccc(C(=O)Oc2ccc3cc(C(=N)N)ccc3c2)cc1` [ANGD]?
**A.** animals surviving (10 of 19 lab rodents in shock treated with ANGD plus basic shock care, one of nine untreated survived): Eight of the ten survived; survival rate (lab animals in which shock had been induced): dramatically improved the survival rate
